The Dmax is the greatest extent of degradation seen. The low end stands for a partial loss of target, the high end for a fuller loss of target.

The target of the assay is T1, IRAK3 (Homo sapiens, UniProt Q9Y616).
T1 sequence (Q9Y616 1-596): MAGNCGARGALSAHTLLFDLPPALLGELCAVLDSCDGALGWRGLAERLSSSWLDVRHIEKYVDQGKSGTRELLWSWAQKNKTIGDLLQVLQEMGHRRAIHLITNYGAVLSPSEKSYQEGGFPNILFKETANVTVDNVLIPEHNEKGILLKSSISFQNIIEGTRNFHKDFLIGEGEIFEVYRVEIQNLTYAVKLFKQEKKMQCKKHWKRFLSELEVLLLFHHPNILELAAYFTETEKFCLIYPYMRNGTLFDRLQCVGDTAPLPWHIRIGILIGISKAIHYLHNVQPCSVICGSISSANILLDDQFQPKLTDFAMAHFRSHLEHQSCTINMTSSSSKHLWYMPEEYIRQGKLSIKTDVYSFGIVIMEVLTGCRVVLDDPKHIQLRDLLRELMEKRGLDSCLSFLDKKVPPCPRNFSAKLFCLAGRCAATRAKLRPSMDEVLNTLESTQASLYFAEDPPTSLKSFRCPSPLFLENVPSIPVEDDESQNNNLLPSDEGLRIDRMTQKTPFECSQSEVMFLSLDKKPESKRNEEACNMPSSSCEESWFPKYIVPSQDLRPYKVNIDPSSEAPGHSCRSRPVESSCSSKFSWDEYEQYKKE
Kind of assay: IRAK endogenous HTRF degradation assay (Total-IRAK3 HTRF kit). The format is cell-based. On the set-up: IRAK Endogenous HTRF Degradation Assay; endogenous in cells. The note with it: endogenous IRAK3, overnight incubation; % Dmax = 100 − Ymin. On the procedure: Example B2. IRAK Endogenous HTRF Degradation Assay
Cells (~50k) were plated in Cisbio 96-well low volume white plates (Cisbio: cat #66PL96005). Compounds were dissolved in DMSO and a 3-fold serial dilution was performed using a TECAN D300E. Cells were incubated with the compound overnight. Total-IRAK3 HTRF kit from Cisbio was used for degradation analysis (Cisbio: 63ADK101PEH). Cryptate and D2 antibodies were diluted in Detection buffer as per manufacturers recommendation. Then 2 μL of each solution was added to 16 μL lysate. Buffer control (lysis buffer detection buffer), Cryptate control (lysis buffer+cryptate antibody+detection buffer), and Negative control (lysis buffer+cryptate antibody+D2 antibody) were made as per manufacturers recommendation. Post incubation with antibodies the HTRF signal was measured using a Perkin Elmer Envision reader and the HTRF signal was calculated using formula: (Emission at 665 nm/Emission at 615 nm)*10,000. All HTRF values were normalized to the average value of DMSO. The average value of the DMSO control wells were set to equal 100% of the relative IRAK3 protein levels. Normalized luminescence values were plotted on a graph as a function of compound concentration. Compound concentration was plotted on the x-axis and the corresponding normalized IRAK3 protein levels on the y-axis. The EC50 value (the half-maximum effective concentration) of a compound for the degradation of the IRAK3 was calculated using a four-parameter logistic model (sigmoidal dose-response model) (FIT=(A+{(B−A)/1+[(C/x)D]})) where C is the inflection point (EC50), D is the […], and A and B are the low and high limits of the fit, respectively). The Ymin was calculated by determining the lowest percentage of target protein remaining following compound treatment. Dmax was calculated from Ymin (% Dmax=100−Ymin).
Using these assays, IC50, Dmax, EC50, and DC50 values of the following compounds were determined. Dmax is defined as the maximum percent degradation achieved and DC50 is the concentration at which 50% degradation is achieved.

The structures appear in SMILES notation.

As to `Cc1ncsc1-c1ccc(CNC(=O)[C@@H]2C[C@@H](O)CN2C(=O)[C@@H](NC(=O)COCCOCCN2CCC(n3cc(-c4cnc(N)c(O[C@H](C)c5c(Cl)ccc(F)c5Cl)c4)cn3)CC2)C(C)(C)C)cc1` [Compound 2, (2S,4R)-1-((S)-2-(2-(2-(2-(4-(4-(6-amino-5-((R)-1-(2,6-dichloro-3-fluorophenyl)ethoxy)pyridin-3-yl)-1H-pyrazol-1-yl)piperidin-1-yl)ethoxy)ethoxy)acetamido)-3,3-dimethylbutanoyl)-4-hydroxy-N-(4-(4-methylthiazol-5-yl)benzyl)pyrrolidine-2-carboxamide], the Dmax was determined as 35%. The figure for `C[C@@H](Oc1cc(-c2cnn(C3CCN(CCOCCOCCNC(=O)COc4ccc5c(c4)C(=O)N(C4CCC(=O)NC4=O)C5=O)CC3)c2)cnc1N)c1c(Cl)ccc(F)c1Cl` (stereo partly drawn) [Compound 15, N-(2-(2-(2-(4-(4-(6-amino-5-((R)-1-(2,6-dichloro-3-fluorophenyl)ethoxy)pyridin-3-yl)-1H-pyrazol-1-yl)piperidin-1-yl)ethoxy)ethoxy)ethyl)-2-((2-(2,6-dioxopiperidin-3-yl)-1,3-dioxoisoindolin-5-yl)oxy)acetamide] is 20%; for `C[C@@H](Oc1cc(-c2cnn(C3CCN(C4CCC5(CC4)CCN(C(=O)c4cccc6c4CN(C4CCC(=O)NC4=O)C6=O)CC5)CC3)c2)cnc1N)c1c(Cl)ccc(F)c1Cl` (stereo partly drawn) [Compound 21, 3-(4-(9-(4-(4-(6-amino-5-((R)-1-(2,6-dichloro-3-fluorophenyl)ethoxy)pyridin-3-yl)-1H-pyrazol-1-yl)piperidin-1-yl)-3-azaspiro[5.5]undecane-3-carbonyl)-1-oxoisoindolin-2-yl)piperidine-2,6-dione] it is 68%. The figure for `Cc1ncsc1-c1ccc(CNC(=O)[C@@H]2C[C@@H](O)CN2C(=O)[C@@H](NC(=O)COCCOCCOCCOCCN2CCC(n3cc(-c4cnc(N)c(O[C@H](C)c5c(Cl)ccc(F)c5Cl)c4)cn3)CC2)C(C)(C)C)cc1` [Compound 4, (2S,4R)-1-((S)-17-(4-(4-(6-amino-5-((R)-1-(2,6-dichloro-3-fluorophenyl)ethoxy)pyridin-3-yl)-1H-pyrazol-1-yl)piperidin-1-yl)-2-(tert-butyl)-4-oxo-6,9,12,15-tetraoxa-3-azaheptadecanoyl)-4-hydroxy-N-(4-(4-methylthiazol-5-yl)benzyl)pyrrolidine-2-carboxamide] is 21%; for `C[C@@H](Oc1cc(-c2cnn(C3CCN(CCOCCOCCOCCOCCNC(=O)COc4ccc5c(c4)C(=O)N(C4CCC(=O)NC4=O)C5=O)CC3)c2)cnc1N)c1c(Cl)ccc(F)c1Cl` (stereo partly drawn) [Compound 17, N-(14-(4-(4-(6-amino-5-((R)-1-(2,6-dichloro-3-fluorophenyl)ethoxy)pyridin-3-yl)-1H-pyrazol-1-yl)piperidin-1-yl)-3,6,9,12-tetraoxatetradecyl)-2-((2-(2,6-dioxopiperidin-3-yl)-1,3-dioxoisoindolin-5-yl)oxy)acetamide] it is 32%; for `C[C@@H](Oc1cc(-c2cnn(C3CCN(C4CCC5(CC4)CCN(C(=O)c4ccc6c(c4)C(=O)N(C4CCC(=O)NC4=O)C6=O)CC5)CC3)c2)cnc1N)c1c(Cl)ccc(F)c1Cl` (stereo partly drawn) [Compound 18, 5-(9-(4-(4-(6-amino-5-((R)-1-(2,6-dichloro-3-fluorophenyl)ethoxy)pyridin-3-yl)-1H-pyrazol-1-yl)piperidin-1-yl)-3-azaspiro[5.5]undecane-3-carbonyl)-2-(2,6-dioxopiperidin-3-yl)isoindoline-1,3-dione] it is 73%. The figure for `C[C@@H](Oc1cc(-c2cnn(C3CCN(CCOCCOCCNC(=O)COc4cccc5c4C(=O)N(C4CCC(=O)NC4=O)C5=O)CC3)c2)cnc1N)c1c(Cl)ccc(F)c1Cl` (stereo partly drawn) [Compound 10, N-(2-(2-(2-(4-(4-(6-amino-5-((R)-1-(2,6-dichloro-3-fluorophenyl)ethoxy)pyridin-3-yl)-1H-pyrazol-1-yl)piperidin-1-yl)ethoxy)ethoxy)ethyl)-2-((2-(2,6-dioxopiperidin-3-yl)-1,3-dioxoisoindolin-4-yl)oxy)acetamide] is 37%.
